From US20230303589A1, “CRYSTALLINE FORMS OF CFTR MODULATORS” (Vertex Pharmaceuticals Incorporated, priority 2020, published 2023)

Key:
[1] = biological target: CFTR (Homo sapiens, UniProt P13569); assay: Membrane potential dye assay in human intestinal epithelial enteroid cells; type: cell-based; settings: CFTR-mediated chloride transport; 18-24 h incubation; acute 10 µM forskolin and 300 nM Compound III
Protocol: Base medium (ADF+++) consisted of Advanced DMEM/Ham’s F12, 2 mM Glutamax, 10 mM HEPES, […] penicillin/streptomycin.
Intestinal enteroid maintenance medium (IEMM) consisted of ADF+++, 1x B27 supplement, 1x N2 supplement, 1.25 mM N-acetyl cysteine, 10 mM Nicotinamide, 50 ng/mL hEGF, 10 nM Gastrin, 1 µg/mL hR-spondin-1, 100 ng/mL hNoggin, TGF-b type 1 inhibitor A-83-01, 100 µg/mL Primocin, 10 µM P38 MAPK inhibitor SB202190.
Bath 1 Buffer consisted of 1 mM MgC12, 160 mM NaCl, 4.5 mM KC1, 10 mM HEPES, 10 mM Glucose, 2 mM CaCl2.
Chloride Free Buffer consisted of 1 mM Magnesium Gluconate, 2 mM Calcium Gluconate, 4.5 mM Potassium Gluconate, 160 mM Sodium Gluconate, 10 mM HEPES, 10 mM Glucose.
Bath1 Dye Solution consisted of Bath 1 Buffer, 0.04% Pluronic F127, 20 µM Methyl Oxonol, 30 µM CaCCinh-A01, 30 µM Chicago Sky Blue. […]
Enteroid cells were incubated with test compound in IEMM for 18-24 h at 37° C., 95% humidity and 5% CO2. […] Chloride transport was initiated by addition of Chloride Free Dye Stimulation Solution and the fluorescence signal was read for 15 min. […] Chloride transport was then expressed as a percentage of the chloride transport following treatment with 3 µM Compound I, 3 µM Compound II, and 300 nM acute Compound III triple combination control (% Activity).

[2] = biological target: T1, F508del CFTR (Homo sapiens, UniProt P13569, DEL508-508); assay: Ussing chamber chloride transport, F508del/F508del HBE; type: cell-based; settings: for chloride transport: treatment for 16 to 24 h
T1 construct: HBE cells derived from 3 F508del homozygous donors; endogenous in cells; host or cells: HBE cells from 3 F508del homozygous donors
Protocol: (§1) Ussing chamber studies were conducted to measure F508del CFTR-mediated chloride transport in HBE cells derived from 3 F508del homozygous donors and 5 F508del/MF donors (G542X, 3 donors; E585X, 1 donor; 3905InsT, 1 donor). As a positive control, maximally effective concentrations of N-(benzenesulfonyl)-6-[3-[2-[1-(trifluoromethyl)cyclopropyl] ethoxy] pyrazol-1-yl]-2-[ ( 4S)-2,2,4-trimethylpyrrolidin-1-yl] pyridine-3-carboxamide (see WO 2018/064632) and N-[(6-amino-2-pyridyl)sulfonyl]-6-(3-fluoro-5-isobutoxy-phenyl)-2-[(4S)-2,2,4-trimethylpyrrolidin-1-yl]pyridine-3-carboxamide (see WO 2016/057572) in combination with Compound II/Compound III were included in each experiment.

[3] = biological target: T1, F508del CFTR; assay: Ussing chamber chloride transport, F508del/MF HBE; type: cell-based; settings: for chloride transport: treatment for 16 to 24 h
Protocol: as §1

[4] = Pharmacokinetics after a single oral administration in male rats; type: in vivo; settings: nominal dose 3 mg/kg, mean oral bioavailability
[5] = Pharmacokinetics after a single oral administration in male dogs; type: in vivo; settings: nominal dose 1 mg/kg, mean oral bioavailability
[6] = Pharmacokinetics after a single oral administration in male monkeys; type: in vivo; settings: nominal dose 1 mg/kg, mean oral bioavailability
[7] = Systemic exposure with increasing dose and repeated oral administration for 28 d in rats; type: in vivo
[8] = Systemic exposure with increasing dose and repeated oral administration for 28 d in dogs; type: in vivo
[9] = Safety analysis of an ongoing clinical study; type: in vivo
Protocol: A safety analysis of an ongoing clinical study was performed for 37 subjects in Cohorts A1 to A5, 33 subjects in Cohort B, and 17 subjects in Cohort C, who were exposed to at least 1 dose of study drug (Compound I or placebo) as a monotherapy and as part of a triple combination with Compound II or Compound III.

[10] = with a fixed combination of Compound II
[11] = with a fixed concentration of Compound III or Compound II/Compound III

T1 sequence (P13569 with tags, fused parts or gaps DEL508-508): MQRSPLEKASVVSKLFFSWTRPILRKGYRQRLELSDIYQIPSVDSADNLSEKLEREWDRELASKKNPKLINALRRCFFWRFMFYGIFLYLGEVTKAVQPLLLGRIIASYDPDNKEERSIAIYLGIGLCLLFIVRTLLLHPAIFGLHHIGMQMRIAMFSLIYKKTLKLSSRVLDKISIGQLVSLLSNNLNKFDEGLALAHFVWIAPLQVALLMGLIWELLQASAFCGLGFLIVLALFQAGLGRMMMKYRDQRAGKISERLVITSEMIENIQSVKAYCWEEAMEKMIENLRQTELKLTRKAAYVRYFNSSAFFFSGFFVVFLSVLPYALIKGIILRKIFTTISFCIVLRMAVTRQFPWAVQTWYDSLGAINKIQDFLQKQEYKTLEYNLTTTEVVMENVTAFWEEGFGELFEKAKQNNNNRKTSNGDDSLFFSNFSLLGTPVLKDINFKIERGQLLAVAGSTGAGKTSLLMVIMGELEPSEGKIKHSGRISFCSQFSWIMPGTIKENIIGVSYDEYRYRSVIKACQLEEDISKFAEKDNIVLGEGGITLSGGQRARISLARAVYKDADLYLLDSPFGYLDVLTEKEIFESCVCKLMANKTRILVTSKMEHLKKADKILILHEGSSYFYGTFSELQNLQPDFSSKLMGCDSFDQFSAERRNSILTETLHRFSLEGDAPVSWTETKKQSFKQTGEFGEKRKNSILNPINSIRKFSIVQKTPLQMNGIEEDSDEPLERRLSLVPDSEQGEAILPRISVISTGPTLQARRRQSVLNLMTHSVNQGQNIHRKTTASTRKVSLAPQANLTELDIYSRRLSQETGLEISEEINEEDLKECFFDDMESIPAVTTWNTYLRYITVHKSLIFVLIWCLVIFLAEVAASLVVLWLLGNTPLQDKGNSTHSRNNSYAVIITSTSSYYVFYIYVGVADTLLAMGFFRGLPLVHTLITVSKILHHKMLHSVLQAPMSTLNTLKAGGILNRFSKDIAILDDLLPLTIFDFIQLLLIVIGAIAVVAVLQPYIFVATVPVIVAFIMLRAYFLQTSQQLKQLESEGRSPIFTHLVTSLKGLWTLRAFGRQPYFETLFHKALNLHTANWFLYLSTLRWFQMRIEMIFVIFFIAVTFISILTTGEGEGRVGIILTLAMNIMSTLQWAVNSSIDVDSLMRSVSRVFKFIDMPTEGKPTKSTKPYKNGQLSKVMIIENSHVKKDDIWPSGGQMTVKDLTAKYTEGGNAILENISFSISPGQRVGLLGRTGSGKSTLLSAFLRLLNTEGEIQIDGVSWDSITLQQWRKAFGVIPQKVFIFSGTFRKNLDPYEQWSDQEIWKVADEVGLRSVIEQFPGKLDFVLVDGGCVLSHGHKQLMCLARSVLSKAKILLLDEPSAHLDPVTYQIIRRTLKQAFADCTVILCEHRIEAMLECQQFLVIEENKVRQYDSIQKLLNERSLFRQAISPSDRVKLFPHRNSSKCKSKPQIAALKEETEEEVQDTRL
CFTR, sequence (P13569 whole entry): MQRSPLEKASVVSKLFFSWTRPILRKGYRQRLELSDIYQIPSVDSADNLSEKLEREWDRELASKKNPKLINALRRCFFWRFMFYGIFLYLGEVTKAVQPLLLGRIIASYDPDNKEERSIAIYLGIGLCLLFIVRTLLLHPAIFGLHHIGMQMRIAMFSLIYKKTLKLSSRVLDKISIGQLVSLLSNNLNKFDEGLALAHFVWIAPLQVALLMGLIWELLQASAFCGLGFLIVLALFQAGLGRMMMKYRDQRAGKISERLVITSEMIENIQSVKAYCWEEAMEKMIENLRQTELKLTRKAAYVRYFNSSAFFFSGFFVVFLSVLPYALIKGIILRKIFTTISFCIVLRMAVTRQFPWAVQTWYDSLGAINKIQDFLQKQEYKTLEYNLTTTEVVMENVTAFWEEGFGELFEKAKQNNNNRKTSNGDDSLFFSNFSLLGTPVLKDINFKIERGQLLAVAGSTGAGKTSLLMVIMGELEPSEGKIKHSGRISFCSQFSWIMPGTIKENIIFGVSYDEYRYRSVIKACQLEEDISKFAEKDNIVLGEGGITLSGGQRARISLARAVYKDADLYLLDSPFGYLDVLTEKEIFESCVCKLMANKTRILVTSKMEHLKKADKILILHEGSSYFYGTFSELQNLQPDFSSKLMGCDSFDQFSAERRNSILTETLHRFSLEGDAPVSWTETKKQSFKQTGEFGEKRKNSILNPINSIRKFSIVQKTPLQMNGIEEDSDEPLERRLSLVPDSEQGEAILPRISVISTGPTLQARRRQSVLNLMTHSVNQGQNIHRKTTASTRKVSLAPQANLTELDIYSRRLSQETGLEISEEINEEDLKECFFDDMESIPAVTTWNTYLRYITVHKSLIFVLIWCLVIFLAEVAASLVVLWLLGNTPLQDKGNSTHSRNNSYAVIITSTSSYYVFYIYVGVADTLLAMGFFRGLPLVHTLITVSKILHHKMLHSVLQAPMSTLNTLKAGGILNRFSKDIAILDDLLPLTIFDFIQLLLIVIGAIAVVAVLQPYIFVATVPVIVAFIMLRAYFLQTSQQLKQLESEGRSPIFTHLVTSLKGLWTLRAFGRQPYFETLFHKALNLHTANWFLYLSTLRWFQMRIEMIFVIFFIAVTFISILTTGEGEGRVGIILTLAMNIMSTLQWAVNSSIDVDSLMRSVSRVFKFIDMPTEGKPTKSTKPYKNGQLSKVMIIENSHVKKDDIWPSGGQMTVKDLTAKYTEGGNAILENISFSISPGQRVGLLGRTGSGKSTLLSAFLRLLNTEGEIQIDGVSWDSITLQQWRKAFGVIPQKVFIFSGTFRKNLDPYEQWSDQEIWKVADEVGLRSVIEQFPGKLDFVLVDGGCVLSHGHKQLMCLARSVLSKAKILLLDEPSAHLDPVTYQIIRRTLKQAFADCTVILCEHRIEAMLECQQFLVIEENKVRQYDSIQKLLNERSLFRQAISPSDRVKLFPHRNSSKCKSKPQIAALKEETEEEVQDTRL

| EC50 [1] [nM] | synergy analysis [2, 10] | synergy analysis [2, 11] | synergy analysis [3, 10] | synergy analysis [3, 11] | F [4] [%] | F [5] [%] | F [6] [%] | Dosenormalized exposure, sex comparison [7] | SMILES | chloride transport [2] | chloride transport [3] | systemic exposure as the dose increased [7] | systemic exposure as the dose increased [8] | safety and tolerability ([9]; monotherapy, up to a dose of 60 mg qd) | safety and tolerability ([9]; up to 20 mg qd in triple combination with Compound II and Compound III) |
| --- | --- | --- | --- | --- | --- | --- | --- | --- | --- | --- | --- | --- | --- | --- | --- |
| < 1000 | modestly synergistic | highly synergistic | modestly synergistic | highly synergistic | 76.9 | 49.7 | 12.9 | higher in female rats than male rats | CC1(C)C[C@@H]2CCCNc3cccc(n3)S(=O)(=O)NC(=O)c3ccc(-n4ccc(OCCC5C6(CC6)C56CC6)n4)nc3N1C2 [Compound I, (14S)-8-[3-(2-{Dispiro[2.0.2.1]heptan-7-yl}ethoxy)-1H-pyrazol-1-yl]-12,12-dimethyl-2λ6-thia-3,9,11,18,23-pentaazatetracyclo[17.3.1.111,14.05,10]tetracosa-1(22),5,7,9,19(23),20-hexaene-2,2,4-trione] | modest increase | modest increase | increased in a more than doseproportional manner | increased in a more than doseproportional manner | generally safe and well-tolerated | generally safe and well-tolerated |
| – | – | – | – | – | – | – | – | – | CC(C)(C)c1cc(C(C)(C)C)c(NC(=O)c2c[nH]c3ccccc3c2=O)cc1O [Compound III, N-[2,4-bis(1,1-dimethylethyl)-5-hydroxyphenyl]-1,4-dihydro-4-oxoquinoline-3-carboxamide, reference compound] | strongly potentiated chloride transport in the presence of Compound I or in combination with Compound I/Compound II | strongly potentiated chloride transport in the presence of Compound I or in combination with Compound I/Compound II | – | – | – | – |
